The subject of one assay is human sAC. Conditions: read-out: reported IC50 against human sAC; cited from earlier work.
Assay [1] has as its target T1, CyaC (Limnospira platensis, UniProt O32393). The conditions noted are these: cited from earlier work.
The target in the next assay is AC5 (Homo sapiens, UniProt O95622). Conditions: 100 μM compound; forskolin-stimulated; transfected HEK293T lysate.
Assay [2] has as its system endogenous tmACs expressed in HEK293T cells. Type of assay: biochemical, mammalian. Conditions: 100 μM compound.
The target of another assay is T2, AC9 (Homo sapiens, UniProt O60503).
T2 sequence (O60503 1-1353): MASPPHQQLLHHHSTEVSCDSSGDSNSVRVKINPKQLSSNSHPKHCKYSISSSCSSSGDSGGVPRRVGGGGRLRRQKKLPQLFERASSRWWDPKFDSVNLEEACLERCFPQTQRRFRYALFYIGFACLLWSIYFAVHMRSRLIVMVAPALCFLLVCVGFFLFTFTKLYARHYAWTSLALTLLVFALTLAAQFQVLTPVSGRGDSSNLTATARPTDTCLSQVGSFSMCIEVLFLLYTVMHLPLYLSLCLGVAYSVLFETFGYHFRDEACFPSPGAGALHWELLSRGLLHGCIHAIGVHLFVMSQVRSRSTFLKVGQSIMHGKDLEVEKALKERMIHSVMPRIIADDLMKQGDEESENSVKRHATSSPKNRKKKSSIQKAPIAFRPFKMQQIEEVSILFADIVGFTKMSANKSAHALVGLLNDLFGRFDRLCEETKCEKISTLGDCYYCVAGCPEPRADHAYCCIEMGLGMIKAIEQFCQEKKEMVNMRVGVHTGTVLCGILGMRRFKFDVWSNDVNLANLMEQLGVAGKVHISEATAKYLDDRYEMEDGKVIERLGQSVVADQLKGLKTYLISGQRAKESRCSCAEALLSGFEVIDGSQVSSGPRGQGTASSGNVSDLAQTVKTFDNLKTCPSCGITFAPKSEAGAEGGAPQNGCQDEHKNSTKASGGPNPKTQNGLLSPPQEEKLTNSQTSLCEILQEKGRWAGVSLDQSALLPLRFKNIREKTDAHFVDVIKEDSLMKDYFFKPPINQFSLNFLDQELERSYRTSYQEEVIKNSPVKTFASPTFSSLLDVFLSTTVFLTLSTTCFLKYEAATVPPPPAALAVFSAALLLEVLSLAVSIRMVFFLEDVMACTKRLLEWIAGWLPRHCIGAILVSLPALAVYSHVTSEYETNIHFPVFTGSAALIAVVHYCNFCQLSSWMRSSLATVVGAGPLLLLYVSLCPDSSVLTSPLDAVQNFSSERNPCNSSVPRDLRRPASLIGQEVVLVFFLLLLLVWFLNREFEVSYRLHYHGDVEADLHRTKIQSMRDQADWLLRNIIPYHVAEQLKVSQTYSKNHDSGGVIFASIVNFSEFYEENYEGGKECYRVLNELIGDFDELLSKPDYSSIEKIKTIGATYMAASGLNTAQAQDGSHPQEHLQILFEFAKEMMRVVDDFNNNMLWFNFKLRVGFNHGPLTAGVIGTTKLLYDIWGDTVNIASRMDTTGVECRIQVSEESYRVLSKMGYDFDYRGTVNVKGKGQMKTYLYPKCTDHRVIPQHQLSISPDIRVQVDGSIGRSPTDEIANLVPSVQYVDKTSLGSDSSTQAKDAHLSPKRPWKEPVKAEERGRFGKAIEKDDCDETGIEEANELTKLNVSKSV
Conditions: 100 μM compound, transfected HEK293T lysate.

For a further assay, the target named is AC1 (Homo sapiens, UniProt Q08828). The conditions noted are these: 100 μM compound; forskolin-stimulated; transfected HEK293T lysate.
Chain of AC1 (Q08828 whole entry): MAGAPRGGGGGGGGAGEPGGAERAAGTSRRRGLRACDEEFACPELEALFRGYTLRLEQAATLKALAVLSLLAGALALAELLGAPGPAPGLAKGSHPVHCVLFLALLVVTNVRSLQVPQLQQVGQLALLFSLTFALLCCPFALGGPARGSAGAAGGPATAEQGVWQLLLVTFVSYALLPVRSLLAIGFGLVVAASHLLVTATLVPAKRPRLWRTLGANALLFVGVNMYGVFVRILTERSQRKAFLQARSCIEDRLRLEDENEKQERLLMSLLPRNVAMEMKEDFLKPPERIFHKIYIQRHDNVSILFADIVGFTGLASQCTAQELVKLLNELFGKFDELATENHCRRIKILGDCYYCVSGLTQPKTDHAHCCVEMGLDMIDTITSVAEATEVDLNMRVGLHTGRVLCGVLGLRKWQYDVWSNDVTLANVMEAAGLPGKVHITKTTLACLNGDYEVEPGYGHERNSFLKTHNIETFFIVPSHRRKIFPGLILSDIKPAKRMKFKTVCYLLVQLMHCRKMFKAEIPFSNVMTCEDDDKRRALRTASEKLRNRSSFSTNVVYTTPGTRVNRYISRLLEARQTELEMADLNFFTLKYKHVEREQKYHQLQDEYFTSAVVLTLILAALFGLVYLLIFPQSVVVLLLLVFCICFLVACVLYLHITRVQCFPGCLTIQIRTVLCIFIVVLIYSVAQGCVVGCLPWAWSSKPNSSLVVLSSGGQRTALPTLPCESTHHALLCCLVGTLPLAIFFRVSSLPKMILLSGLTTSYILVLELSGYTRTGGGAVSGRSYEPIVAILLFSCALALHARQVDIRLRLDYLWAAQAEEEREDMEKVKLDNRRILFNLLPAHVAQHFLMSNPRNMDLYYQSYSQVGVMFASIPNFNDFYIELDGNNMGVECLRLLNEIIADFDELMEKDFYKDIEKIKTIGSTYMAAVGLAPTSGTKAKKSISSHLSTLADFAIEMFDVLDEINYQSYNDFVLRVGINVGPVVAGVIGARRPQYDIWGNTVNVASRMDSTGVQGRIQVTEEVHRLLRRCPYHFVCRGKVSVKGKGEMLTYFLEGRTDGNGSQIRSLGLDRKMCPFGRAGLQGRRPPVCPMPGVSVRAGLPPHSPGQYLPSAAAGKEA
In assay [3] the target is T1, CyaC.
The target in the next assay is AC2 (Homo sapiens, UniProt Q08462).
Chain of AC2 (Q08462 whole entry): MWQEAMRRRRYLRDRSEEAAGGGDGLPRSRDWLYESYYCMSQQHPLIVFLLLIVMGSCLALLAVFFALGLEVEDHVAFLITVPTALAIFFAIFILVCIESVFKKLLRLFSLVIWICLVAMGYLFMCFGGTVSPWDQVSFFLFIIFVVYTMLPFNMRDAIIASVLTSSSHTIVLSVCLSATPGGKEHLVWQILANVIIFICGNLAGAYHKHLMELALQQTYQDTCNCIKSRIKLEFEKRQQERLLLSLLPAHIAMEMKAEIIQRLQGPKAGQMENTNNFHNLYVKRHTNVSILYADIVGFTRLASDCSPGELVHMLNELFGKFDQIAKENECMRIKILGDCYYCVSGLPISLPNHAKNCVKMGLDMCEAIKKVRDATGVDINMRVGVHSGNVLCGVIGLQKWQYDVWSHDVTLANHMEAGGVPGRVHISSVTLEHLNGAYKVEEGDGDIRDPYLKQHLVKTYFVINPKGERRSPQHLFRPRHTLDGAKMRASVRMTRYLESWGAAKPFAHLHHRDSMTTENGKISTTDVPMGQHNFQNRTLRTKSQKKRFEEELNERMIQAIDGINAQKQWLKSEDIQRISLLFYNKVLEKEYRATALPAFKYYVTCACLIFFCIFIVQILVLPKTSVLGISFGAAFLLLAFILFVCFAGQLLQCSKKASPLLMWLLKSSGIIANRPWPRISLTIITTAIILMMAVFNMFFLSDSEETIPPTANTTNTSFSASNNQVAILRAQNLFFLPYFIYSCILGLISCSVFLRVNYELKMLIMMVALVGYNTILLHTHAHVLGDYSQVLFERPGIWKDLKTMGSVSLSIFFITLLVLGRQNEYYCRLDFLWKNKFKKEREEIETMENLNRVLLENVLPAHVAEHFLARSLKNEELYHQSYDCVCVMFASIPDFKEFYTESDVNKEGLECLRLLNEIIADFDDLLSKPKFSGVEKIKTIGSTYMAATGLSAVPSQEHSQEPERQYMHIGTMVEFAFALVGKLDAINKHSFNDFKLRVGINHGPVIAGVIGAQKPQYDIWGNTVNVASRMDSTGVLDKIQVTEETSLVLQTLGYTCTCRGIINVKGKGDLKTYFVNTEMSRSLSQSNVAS
A further assay deals with T3, mammalian sAC (Homo sapiens, UniProt Q96PN6).
T3 sequence (Q96PN6 1-469): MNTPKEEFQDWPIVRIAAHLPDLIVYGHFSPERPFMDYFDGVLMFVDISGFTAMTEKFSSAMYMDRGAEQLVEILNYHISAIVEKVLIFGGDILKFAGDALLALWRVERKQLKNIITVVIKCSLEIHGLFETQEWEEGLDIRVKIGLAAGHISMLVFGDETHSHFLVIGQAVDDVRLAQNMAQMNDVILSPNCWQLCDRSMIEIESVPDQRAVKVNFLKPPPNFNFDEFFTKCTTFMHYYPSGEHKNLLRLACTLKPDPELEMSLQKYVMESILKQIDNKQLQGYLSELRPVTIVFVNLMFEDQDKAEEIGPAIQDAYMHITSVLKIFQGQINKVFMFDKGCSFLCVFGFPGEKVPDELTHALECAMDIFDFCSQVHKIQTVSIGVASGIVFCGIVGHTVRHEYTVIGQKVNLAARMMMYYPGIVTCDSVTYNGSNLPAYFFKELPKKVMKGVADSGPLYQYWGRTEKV
Description: Activity assay with purified, recombinant mammalian sAC. Type of assay: biochemical, human or rat. Conditions: dose-response curve.

In assay [4] the target is T1, CyaC. Description: biochemical. Conditions: read-out: IC50 against CyaC in vitro (estimated).

Where two headings read alike, the source gives them in different places.

T1 sequence (O32393 998-1202 limits assumed): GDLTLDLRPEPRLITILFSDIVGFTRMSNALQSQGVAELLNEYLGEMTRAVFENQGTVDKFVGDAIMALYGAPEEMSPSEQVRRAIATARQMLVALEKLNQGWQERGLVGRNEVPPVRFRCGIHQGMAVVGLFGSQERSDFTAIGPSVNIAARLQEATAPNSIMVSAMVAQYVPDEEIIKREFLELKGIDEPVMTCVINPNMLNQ
Chain of AC5 (O95622 whole entry, species assumed): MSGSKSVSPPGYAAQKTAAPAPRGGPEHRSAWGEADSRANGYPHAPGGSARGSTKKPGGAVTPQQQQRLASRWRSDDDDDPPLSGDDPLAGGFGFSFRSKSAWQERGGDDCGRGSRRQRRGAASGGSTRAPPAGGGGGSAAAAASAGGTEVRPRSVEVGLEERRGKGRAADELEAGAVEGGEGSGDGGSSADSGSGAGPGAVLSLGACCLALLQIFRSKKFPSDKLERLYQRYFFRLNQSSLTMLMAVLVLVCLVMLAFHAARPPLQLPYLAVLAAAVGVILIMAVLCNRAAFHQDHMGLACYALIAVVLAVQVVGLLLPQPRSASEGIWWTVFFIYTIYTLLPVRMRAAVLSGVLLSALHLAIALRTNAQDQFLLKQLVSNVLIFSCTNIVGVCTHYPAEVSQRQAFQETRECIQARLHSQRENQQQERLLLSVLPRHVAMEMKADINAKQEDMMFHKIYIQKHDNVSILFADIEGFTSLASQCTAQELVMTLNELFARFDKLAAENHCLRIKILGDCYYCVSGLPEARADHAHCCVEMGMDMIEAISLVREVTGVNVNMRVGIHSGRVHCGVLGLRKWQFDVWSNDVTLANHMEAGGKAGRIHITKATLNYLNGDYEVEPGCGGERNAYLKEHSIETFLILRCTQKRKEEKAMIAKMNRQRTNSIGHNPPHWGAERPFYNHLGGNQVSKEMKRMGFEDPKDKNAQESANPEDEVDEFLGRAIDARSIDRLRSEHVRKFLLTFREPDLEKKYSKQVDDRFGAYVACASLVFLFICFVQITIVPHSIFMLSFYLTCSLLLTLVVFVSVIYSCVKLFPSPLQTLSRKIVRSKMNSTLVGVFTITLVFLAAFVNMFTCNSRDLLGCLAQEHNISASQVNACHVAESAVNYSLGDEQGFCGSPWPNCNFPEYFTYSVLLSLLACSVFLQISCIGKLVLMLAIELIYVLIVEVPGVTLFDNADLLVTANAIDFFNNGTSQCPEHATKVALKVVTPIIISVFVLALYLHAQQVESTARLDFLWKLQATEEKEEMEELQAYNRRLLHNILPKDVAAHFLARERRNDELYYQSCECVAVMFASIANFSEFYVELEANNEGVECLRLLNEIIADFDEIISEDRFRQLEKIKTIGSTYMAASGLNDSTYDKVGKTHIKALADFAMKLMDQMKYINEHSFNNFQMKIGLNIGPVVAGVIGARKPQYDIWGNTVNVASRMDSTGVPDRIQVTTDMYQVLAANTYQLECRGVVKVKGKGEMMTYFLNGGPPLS

Broadly, the IC50 is the concentration that inhibits the measured activity by half. For the molecule `C[C@H]1O[C@@H](n2cnc3c(N)ncnc32)C[C@@H]1OP(=O)(O)OP(=O)(O)OP(=O)(O)O` [2′,5′-didesoxy-3′-ATP], the IC50 in the assay on human sAC was 0.7 µM.
In the case of `C[C@]12CC[C@@H]3c4cc(O)c(O)cc4CC[C@H]3[C@@H]1CC[C@@H]2O` [Compound 1, 2-hydroxy-17β-estradiol], the “Mode of inhibition with respect to ATP (reported)” value on CyaC [1] was “noncompetitive inhibitor”.
`C[C@]12CC[C@H]3[C@@H](CCC4=CC(=O)CC[C@@]43C)[C@@H]1CC[C@@H]2C(=O)COS(=O)(=O)c1ccc(Br)cc1` [Compound 2, 3,20-dioxopregn-4-en-21-yl 4-bromobenzenesulfonate]: the “Inhibition of AC5 activity” value on AC5 is recorded as “did not significantly inhibit”. Also, in [2], the “Inhibition of forskolin-stimulated AC activity in HEK293T whole cell extracts” value was “no significant inhibition”. The “Effect on basal AC9 activity” value at AC9 is “did not appreciably affect”. Also, the “Inhibition of AC1 activity” value on AC1 is “did not significantly inhibit”. For the same molecule, the results for the “Vmax of CyaC” value at CyaC [3] (1 μM inhibitor), at CyaC [3] ([…] inhibitor) and at CyaC [3] ([…] μM inhibitor) were 0.38 nmol/mg/min, 0.29 nmol/mg/min and 0.08 nmol/mg/min, respectively. In addition, the “Mode of inhibition with respect to ATP” value on CyaC [3] (various substrate concentrations at fixed inhibitor amounts) is given as “noncompetitive inhibitor”.
With `O=C(O)c1cc2c(cc1S(=O)(=O)O)C1C(C3C2C2(Cl)C(Cl)=C(Cl)C3(Cl)C2(Cl)Cl)C2(Cl)C(Cl)=C(Cl)C1(Cl)C2(Cl)Cl` (stereo not drawn) [Compound 3, 1,2,3,4,5,6,7,8,13,13,14,14-dodecachloro-1,4,4a,4b,5,8,8a, 12b-octahydro-11-sulfo-1,4:5,8-dimethanotriphenylene-10-carboxylic acid], the “Inhibition of basal AC2 activity” value at AC2 (100 μM compound, basal, transfected HEK293T lysate) is recorded as “only moderate inhibition”. Also, at AC2 (in the presence of forskolin, data not shown), the “Effect on AC2 in the presence of forskolin” value is on record as “stimulation”. In addition, on AC5, the “Inhibition of AC5 activity” value is given as “only moderate inhibition”. Besides, on AC9, the “Effect on basal AC9 activity” value is “only moderate inhibition”. The “Inhibition of AC1 activity” value at AC1 is “only moderate inhibition”. Further, the “Hill coefficient for sAC inhibition” value at mammalian sAC worked out at 2.0.
As for `BrC(c1cccc2ccccc12)c1cccc2ccccc12` [Compound 4, 1-(bromo(1-naphthyl)methyl)naphthalene], the potency estimated from few doses on CyaC [4] is around 200 µM.
Still for that read-out and setting: then `C[C@H]1[C@H](C)CC[C@]2(C(=O)O)CC[C@]3(C)C(=CC[C@@H]4[C@@]5(C)C[C@@H](O)[C@H](O)[C@@](C)(CO)[C@@H]5[C@H](O)C[C@]43C)[C@H]12` [Compound 8, 2,3,6,23-tetrahydroxyurs-12-en-28-oic acid], with around 100 µM.

(Values after PMC3082441 (Journal of medicinal chemistry, 2008).)
